Values after ≈ are worked out from the molar mass of the structure shown.

For series [1], the system named is two-spotted mite (Tetranychus urticae Koch). In words: Mite Foliage Spray Test. The series is classed as in vivo. Further details: key to pesticidal activity rating, Mite: A: excellent control; B: partial control; C: no control. The method, then: (§1) Adults and nymphal stages of the two-spotted mite (Tetranychus urticae Koch), reared on Tendergreen bean plants at 80±5 percent relative humidity, were the test organisms. Infested leaves from a stock culture were placed on the primary leaves of two bean plants 6 to 8 inches in height, growing in a 21/2 inch clay pot. 150-200 Mites, a sufficient number for testing, transferred from the excised leaves to the fresh plants in a period of 24 hours. Following the 24 hour transfer period, the excised leaves were removed from the infested plants. The test compounds were formulated by diluting the stock suspension with water to give a suspension containing 500 parts of test compound per million parts of final formulation. The potted plants (one pot per compound) were placed on a revolving turntable and sprayed with 100-110 milliliters of test compound formulation by use of a DeVilbiss spray gun set at 40 psig. air pressure. This application, which lasted 25 seconds, was sufficient to wet the plants to run-off. As a control, 100-110 milliliters of a water solution containing acetone and emulsifier in the same concentrations as the test compound formulation, but containing no test compound, were also sprayed on infested plants. The sprayed plants were held at 80±5 percent relative humidity for 6 days, after which a mortality count of motile forms was made. Microscopic examination for motile forms was made on the leaves of the test plants. Any individual which was capable of locomotion upon prodding was considered living.
(§2) In these tests the pesticidal activity of the compounds against aphid, mite, Southern Armyworm, Bean Beetle and House fly was rated as follows:
(§3) The LD50 values shown in the above Table II were determined by testing the compositions over an appropriate concentration range obtained by serial dilution of the stock suspension with water. The percent kill was plotted on log-probit graph paper versus parts per million concentration, and the LD50 read from an eye-fitted line drawn through the resultant points.

Series [2] in a line: Peroral toxicity to mammals (rat). The series is classed as in vivo. Conditions: in vivo, po; rat, peroral, Table II; read-out: Rat P.O. LD50. The method, then: Certain of these compositions were also evaluated to determine their peroral toxicity to mammals. The animal selected for this experiment was the rat. The test results obtained are expressed in terms of the number of milligrams of composition per kilogram of weight of the animal required to achieve a mortality rate of 50 percent (LD50).

In series [3] the test system is house flies (Musca domestica, L.). The series is described as follows: Fly Bait Test. The series is classed as in vivo. Further details: key to pesticidal activity rating, Housefly: A: excellent control; B: partial control; C: no control. The method, then:
Four to 6 day old adult house flies (Musca domestica, L.), reared according to the specifications of the Chemical Specialities Manufacturing Association (Blue Book, McNair-Dorland Co., N.Y. 1954; pages 243-244, 261) under controlled conditions of 80°±5° F. and 50±5 percent relative humidity, were the test insects. The flies were immobilized by anesthetizing with carbon dioxide and twenty five immobilized individuals, males and females, were transferred to a cage consisting of a standard food strainer about 5 inches in diameter which was inverted over a wrapping-paper-covered surface. The test compounds were formulated by diluting the stock suspension with a 10 percent (by weight) sugar solution to give a suspension containing 500 parts of test compound per million parts of final formulation, by weight. Ten milliliters of the test formulation were added to a souffle cup containing a 1-inch square of an absorbent cotton pad. This bait cup was introduced and centered on the blotting paper under the food strainer prior to admitting the anesthetized flies. The caged flies were allowed to feed on the bait for 24 hours, at a temperature of 80°±5° F. and the relative humidity of 50±5 percent.
as §2, §3

Series [4] deals with Mexican bean beetle (Epilachna varivestis, Muls.). In words: Mexican Bean Beetle Leaf Spray Test. The series is classed as in vivo. The arrangement: key to pesticidal activity rating, Bean beetle: A: excellent control; B: partial control; C: no control. The following applies: leaf spray. On the procedure: Fourth instar larvae of the Mexican bean beetle (Epilachna varivestis, Muls.), reared on Tendergreen bean plants at a temperature of 80°±5° F. and 50±5 percent relative humidity, were the test insects.
The test compounds were formulated by diluting the stock suspension with water to give a suspension containing 500 parts of test compound per million parts of final formulation. Potted Tendergreen bean plants of standard height and age were placed on a revolving turntable and sprayed with 100-110 milliliters of test compound formulation by use of a DeVilbiss spray gun set at 10 psig air pressure. This application, which lasted 25 seconds, was sufficient to wet plants to run-off. As a control, 100-110 milliliters of a water-acetone-emulsifier solution containing no test compound were also sprayed on infested plants. When dry, the paired leaves were separated and each was placed in a 9 centimeter Petri dish lined with moistened filter paper. Five randomly selected larvae were introduced into each dish, and the dishes were closed. The closed dishes were labeled and held at a temperature of 80°±5° F. for 3 days. Although the larvae could easily consume the leaf within 24 to 48 hours, no more food was added. Larvae which were unable to move the length of the body, even upon stimulation, were considered dead.
as §2, §3

Series [5] has as its system mites. The series is described as follows: Systemic miticidal activity (soil drench of infested bean plants). The series is classed as in vivo, Tetranychus urticae Koch. The following applies: Tetranychus urticae; systemic, soil drench, value in parentheses, Table II; read-out: Insect Toxicity, LD50, Mite, systemic activity. On the procedure: as §1, §3
Systemic treatments were made by drenching 20 milliliters of the test compound formulation into the soil around the roots of bean plants growing in 21/2 inch clay pots. […]

Series [6] concerns southern armyworm (Prodenia eridania, (Cram.)). The series is described as follows: Southern Armyworm Leaf Spray Test. The series is classed as in vivo. The arrangement: key to pesticidal activity rating, Armyworm: A: excellent control; B: partial control; C: no control. On the procedure: Larvae of the southern armyworm (Prodenia eridania, (Cram.)), reared on Tendergreen bean plants at a temperature of 80°±5° F. and a relative humidity of 50±5 percent, constituted the test insects.
The test compounds were formulated by diluting the stock suspension with water to give a suspension containing 500 parts of test compound per million parts of final formulation. Potted Tendergreen bean plants of standard height and age were placed on a revolving turntable and sprayed with 100-110 milliliters of test compound formulation by use of a DeVilbiss spray gun set at 10 psig air pressure. This application, which lasted 25 seconds, was sufficient to wet plants to run-off. As a control, 100-110 milliliters of a water-acetone-emulsifier solution containing no test compound were also sprayed on infested plants. When dry, the paired leaves were separated and each one was placed in a 9 centimeter Petri dish lined with moistened filter paper. Five randomly selected larvae were introduced into each dish and the dishes were closed. The closed dishes were labeled and held at 80°-85° F. for 3 days. Although the larvae could easily consume the whole leaf within 24 hours, no more food was added. Larvae which were unable to move the length of the body, even upon stimulation by prodding, were considered dead. Percent mortality was recorded for various concentration levels.
as §2, §3

Series [7] relates to bean aphid (Aphis fabae Scop.). The series is described as follows: Bean Aphid Foliage Spray Test. The series is classed as in vivo. Further details: key to pesticidal activity rating, Aphid: A: excellent control; B: partial control; C: no control. The method, then:
Adults and nymphal stages of the bean aphid (Aphis fabae Scop.) reared on potted dwarf nasturtium plants at 65°-70° F. and 50-70 percent relative humidity, constituted the test insects. For testing purposes, the number of aphids per pot was standardized to 100-150 by trimming plants containing excess aphids.
The test compounds were formulated by diluting the stock suspension with water to give a suspension containing 500 parts of test compound per million parts of final formulation.
The potted plants (one pot per compound tested) infested with 100-150 aphids, were placed on a revolving turntable and sprayed with 100-110 milliliters of test compound formulation by use of a DeVilbiss spray gun set at 40 psig. air pressure. This application, which lasted 25 seconds, was sufficient to wet the plants to run-off. As a control, 100-110 milliliters of a water-acetone-emulsifier solution containing no test compound were also sprayed on infested plants. After spraying, the pots were placed on their sides on a sheet of white standard mimeograph paper which had been previously ruled to facilitate counting. Temperature and humidity in the test room during the 24 hour holding period were 65°-70° F. and 50-70 percent, respectively. Aphids which fell onto the paper and were unable to remain standing after being uprighted were considered dead. Aphids remaining on the plants were observed closely for movement and those which were unable to move the length of the body upon stimulation by prodding were considered dead. Percent mortality was recorded for various concentration levels.
as §2, §3

For `CNC(=O)ON=C1CSCCS1` [drawing 3 --NHCH3, reference compound], the “pesticidal activity rating, Mite” value in series [1] (500 parts per million, 6 days) was “A”. Moreover, the LC50 in series [1] (Tetranychus urticae, foliar, Table II, read-out: Insect Toxicity, LD50, Mite) was 6 µg/mL (≈ 29.1 µM); in series [3] (Musca domestica, 24 h, Table II, read-out: Insect Toxicity, LD50, House fly), 1 µg/mL (≈ 4.85 µM); in series [4] (Epilachna varivestis, 72 h, Table II, read-out: Insect Toxicity, LD50, Mexican Bean beetle), 52 µg/mL (≈ 252 µM); in series [5], 12 µg/mL (≈ 58.2 µM); in series [6] (Spodoptera eridania, 72 h, Table II, read-out: Insect Toxicity, LD50, Armyworm), 53 µg/mL (≈ 257 µM); in series [7] (Aphis fabae, foliar, 24 h, Table II, read-out: Insect Toxicity, LD50, Aphid), 5 µg/mL (≈ 24.2 µM). Also, in series [2], the LD50 came to 15 mg/kg. For the same compound, in series [3] (500 parts per million, 24 hours), the “pesticidal activity rating, Housefly” value is on record as “A”. For the same compound, the “pesticidal activity rating, Bean beetle” value in series [4] (500 parts per million, 3 days) is “A”. In addition, the “pesticidal activity rating, Armyworm” value in series [6] (500 parts per million, 3 days) was “A”. In addition, the “pesticidal activity rating, Aphid” value in series [7] (500 parts per million, 24 hour) is “A”.

The LD50 is the dose at which mortality reaches 50%.

Values taken from US4111955A, “N-Trihalomethanesulfenyl carbamoyloximino di-sulfur heterocyclic compounds” (priority 1976, dated 1978).
